The source of these data is US20230131993A1 (priority 2020, published 2023).

Read-outs that look alike come from different tables or passages of the source.

Data set [1] can be described thus: Color stability of DragoCalm before and after Oxipres treatment (L*a*b* system, Δb*). As to conditions: color difference before/after Oxipres treatment. Also on record: key: L*a*b* Δb* = b* change before vs after Oxipres; higher = more discolored. The data set is classed as physicochemical. Here is the method: (i.e. hydroxyacetophenone).
Furthermore, the color of the DragoCalm® samples was measured before and after the Oxipres treatment by using the L*a*b* system (Lico 690). The b* value describes the discoloration in the yellowish/red/brownish area, the Δ b* value describes the difference of color before and after Oxipres treatment. The higher the Δ b* value the more discolorated is the test solution.

The nature of data set [2]: Oxipres accelerated stability test of DragoCalm: Avenanthramide C content by HPLC before and after treatment. As to conditions: for degradation inhibitory activity, ranking of single stabilizers: as demonstrated by the examples; for Degradation (%) of Avenanthramide C: DragoCalm, Oxipres 5 bars oxygen, 24 hours, 70° C.
Protocol: The oxidative stability of the glycerol/water-based solution of an DragoCalm® extract as described below with different stabilizer was evaluated against a glycerol/water-based solution of an oat extract without stabilizer.
The Oxipres device allows the determination of oxidative resistance (shelf life) of oils. The device is a modification of the bomb method according to ASTM D941, which is based on oxidation with oxygen. The test runs under elevated pressure and temperature, through which the degradation process is accelerated. During the test, the consumption of oxygen results in a pressure drop in the vessel. Decrease of pressure indicates more consumption of oxygen and higher oxidation of the test product.
Thus, it is an accelerated stability test due to harder conditions such as temperature and pressure.
(§1) Stabilizers were presolved in DragoCalm® under stirring at room temperature or, if necessary at a temperature from 40 to 50° C. […] The DragoCalm® samples (15 g) were placed into the reaction vessel and were either exposed to 5 bars of oxygen for 24 hours at 70° C. using the Oxipres device.
(§2) The evaluation of the samples, i.e. the determination of content of Avns was determined by HPLC (comparison before and after Oxipres treatment).
The content of Avenanthramide C was determined by HPLC before and after Oxipres treatment.
A short description of data set [3]: Oxipres stability test of DragoCalm: Avenanthramide B. As to conditions: before and after Oxipres treatment, additive 0.1 %.
Protocol: as §1, §2
(§3) The test procedure and the evaluation of the samples were carried out in the same manner as described above for Avenanthramide C.
For data set [4] the following is noted: 24 h, 0.1 %.
Protocol: as §1, §2, §3
For data set [5] the following is noted: during storage; cited from earlier work.
The nature of data set [6]: Oxipres stability test of DragoCalm: Avenanthramide L. As to conditions: before and after Oxipres treatment.
Protocol: as §1, §2, §3
The test system of a further data set is mast cell. The conditions noted are these: through the interaction with the neurokinin-1 receptor; cited from earlier work.
The mark [7] stands for this setting: in DragoCalm after Oxipres treatment (5 bars oxygen, 24 hours, 70° C.), additive 0.10 %.
Where [8] appears, read: in DragoCalm before Oxipres treatment, additive 0.10 %.
The mark [9] stands for this setting: in DragoCalm after Oxipres treatment (5 bars oxygen, 24 hours, 70° C.), additive 0.05 %.
[10] abbreviates: in DragoCalm before Oxipres treatment, additive 0.05 %.

Turning to `O=C([O-])CC[C@@H](C(=O)[O-])N(CC(=O)[O-])CC(=O)[O-].[Na+].[Na+].[Na+].[Na+]` [Tetrasodium Glutamate Diacetate], the “Δb*” value in data set [1] (additive 0.10 %) was 7.8. In data set [2] (setting [7]), the “Avenanthramide C End (ppm)” value worked out at 1 ppm. Besides, the “Avenanthramide C Start (ppm)” value in data set [2] (setting [8]) came to 13 ppm.

With `CC(O)C(=O)O` (stereo not shown) [Lactic acid], in data set [1] (additive 0.10 %), the “Δb*” value was 8.4. For the same molecule, the “Avenanthramide C End (ppm)” value in data set [2] (setting [7]) amounted to 1 ppm. For the same molecule, the “Avenanthramide C Start (ppm)” value in data set [2] (setting [8]) stood at 12 ppm.

As to `O=C(O)C(O)C(O)C(=O)O` (stereo not shown) [Tartaric acid], the “Δb*” value in data set [1] (additive 0.10 %) is reported as 9.4. The “degradation inhibitory activity, ranking of single stabilizers” value (from here on “degradation inhibitory activity, ranking”) in data set [2] is reported as “most single effective alpha hydroxy acids”. Further, in data set [2] (setting [7]), the “Avenanthramide C End (ppm)” value turned out to be 1 ppm. The “Avenanthramide C Start (ppm)” value in data set [2] (setting [8]) amounted to 11 ppm.

For `CC(=O)c1ccc(O)cc1` [4-Hydroxyacetophenone], the “Δb*” value in data set [1] (additive 0.10 %) amounted to 7.3. Besides, the “Degradation of Avenanthramide B (%)” value in data set [3] is listed as 18.5%. Moreover, in data set [2] (additive 0.10 %), the “Degradation (%) of Avenanthramide C” value is 94.4%. Besides, in data set [2] (setting [7]), the “Avenanthramide C End (ppm)” value turned out to be 1 ppm. For the same molecule, the “Avenanthramide C Start (ppm)” value in data set [2] (setting [8]) is reported as 18 ppm.

Take `O=P(O)(O)O[C@H]1[C@H](OP(=O)(O)O)[C@@H](OP(=O)(O)O)[C@H](OP(=O)(O)O)[C@@H](OP(=O)(O)O)[C@H]1OP(=O)(O)O` [Phytic Acid]: the “Δb*” value in data set [1] (additive 0.10 %) is 8.2. The “Degradation of Avenanthramide L (%)” value in data set [4] was 20.0%. In data set [2] (setting [7]), the “Avenanthramide C End (ppm)” value stood at 2 ppm. Besides, the “Avenanthramide C Start (ppm)” value in data set [2] (setting [8]) turned out to be 14 ppm.

In the case of `O=C1O[C@H]([C@@H](O)CO)C(O)=C1O` [Ascorbic acid], the “Δb*” value in data set [1] (additive 0.05 %) amounted to 8.2. Besides, the “degradation inhibitory activity, ranking” value in data set [2] is recorded as “most effective single antioxidant”. Moreover, the “Avenanthramide C End (ppm)” value in data set [2] (setting [9]) is 3 ppm. Moreover, in data set [2] (setting [10]), the “Avenanthramide C Start (ppm)” value was 16 ppm.

`O=C(C=Cc1ccc(O)c(O)c1)Nc1ccc(O)cc1C(=O)O` [Avenanthramide C, N-(3′-4′-dihydroxycinnamoyl)-5-hydroxyanthranilic acid]: the “stability (known, words)” value in data set [5] is “low stability”.

As for Trisodium Ethylenediamine Disuccinate, the “Δb*” value in data set [1] (additive 0.10 %) is recorded as 7.0. Also, in data set [6] (additive 0.10 %), the “Degradation of Avenanthramide L (%)” value worked out at 0%. Further, the “Degradation of Avenanthramide B (%)” value in data set [3] was found to be 7.4%. The “Degradation (%) of Avenanthramide C” value in data set [2] (additive 0.10 %) came to 66.7%. Further, in data set [2] (setting [7]), the “Avenanthramide C End (ppm)” value is reported as 3 ppm. The “Avenanthramide C Start (ppm)” value in data set [2] (setting [8]) is on record as 9 ppm.

As for `O=C(O)CC(O)(CC(=O)O)C(=O)O` [Citric acid], the “Δb*” value in data set [1] (additive 0.05 %) was 6.5; in data set [1] (additive 0.10 %), 8.2. Moreover, the “Avenanthramide C End (ppm)” value in data set [2] (setting [9]) and in data set [2] (setting [7]) was 1 ppm throughout. Besides, the “Avenanthramide C Start (ppm)” value in data set [2] (setting [10]) stood at 26 ppm; in data set [2] (setting [8]) it was 18 ppm.

In the case of `O=C([O-])CN(CCN(CC(=O)[O-])CC(=O)O)CC(=O)O.[Na+].[Na+]` [Disodium EDTA], the “Δb*” value in data set [1] (additive 0.10 %) is 5.0. Moreover, in data set [2], the “Avenanthramide C End (ppm)” value stood at 9 ppm and the “Avenanthramide C Start (ppm)” value worked out at 16 ppm.

Consider `CC(C(=O)[O-])N(CC(=O)[O-])CC(=O)[O-].[Na+].[Na+].[Na+]` (stereo not shown) [Trisodium MGDA, trisodium methylglycinediacetic acid], for which the “Degradation of Avenanthramide L (%)” value in data set [6] (additive 0.2 %) worked out at 20.0%.

As for `O=C(CCc1ccc(O)cc1)Nc1ccccc1C(=O)O` [Dihydroavenanthramide D, 2-{[3-(4-Hydroxyphenyl)propanoyl]amino}benzoic acid], in the data set on mast cell, the “mast cell degranulation” value is “inhibits mast cell degranulation”. Besides, the “stability (known, words)” value in data set [5] was “more stable in comparison to Avenanthramide C”.

`O=C(O)CC(O)C(=O)O` (stereo not shown) [Malic acid]: the “Δb*” value in data set [1] (additive 0.10 %) is 8.3. Moreover, the “degradation inhibitory activity, ranking” value in data set [2] is “most single effective alpha hydroxy acids”. The “Avenanthramide C End (ppm)” value in data set [2] (setting [7]) was found to be 1 ppm. Moreover, in data set [2] (setting [8]), the “Avenanthramide C Start (ppm)” value was 11 ppm.
